From PubChem BioAssay AID328 (DTP/NCI, 2004)
“And” between values parts separate entries of the source, which are not always exact repeats. Equal values may be shown once. Inconclusive results and toxic doses are left out.

Tested on: BDF1 mice, P388 leukemia ip, median survival T/C
Test: NCI In Vivo Anticancer Drug Screen. Data for tumor model P388 Leukemia (intraperitoneal) in B6D2F1 (BDF1) mice
Details: endpoint: median survival time, higher = longer survival
In short: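 T/C = treated-group survival ÷ vehicle-control survival; tumour transplanted into mice before dosing.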

[1] = dose: 50.0 mg/kg/injection, schedule: Q01DX009 (ip), vehicle: saline with Tween-80
[2] = dose: 100.0 mg/kg/injection, schedule: Q01DX009 (ip), vehicle: saline with Tween-80
[3] = dose: 200.0 mg/kg/injection, schedule: Q01DX009 (ip), vehicle: saline with Tween-80
[4] = dose: 25.0 mg/kg/injection, schedule: Q01DX009 (ip), vehicle: Klucel (hydroxypropylcellulose) (HPC)
[5] = dose: 50.0 mg/kg/injection, schedule: Q01DX009 (ip), vehicle: Klucel (hydroxypropylcellulose) (HPC)
[6] = dose: 100.0 mg/kg/injection, schedule: Q01DX009 (ip), vehicle: Klucel (hydroxypropylcellulose) (HPC)
[7] = dose: 100.0 mg/kg/injection, schedule: Q04DX003 (ip), vehicle: Klucel (hydroxypropylcellulose) (HPC)
[8] = dose: 400.0 mg/kg/injection, schedule: Q04DX003 (ip), vehicle: Klucel (hydroxypropylcellulose) (HPC)
[9] = dose: 400.0 mg/kg/injection, schedule: Q04DX003 (ip), vehicle: saline
[10] = dose: 100.0 mg/kg/injection, schedule: Q01DX009 (ip), vehicle: saline
[11] = dose: 200.0 mg/kg/injection, schedule: Q01DX009 (ip), vehicle: saline
[12] = dose: 100.0 mg/kg/injection, schedule: Q04DX003 (ip), vehicle: saline with Tween-80
[13] = dose: 200.0 mg/kg/injection, schedule: Q04DX003 (ip), vehicle: saline with Tween-80
[14] = dose: 400.0 mg/kg/injection, schedule: Q04DX003 (ip), vehicle: saline with Tween-80
[15] = dose: 200.0 mg/kg/injection, schedule: Q01DX009 (ip), vehicle: Klucel (hydroxypropylcellulose) (HPC)
[16] = dose: 400.0 mg/kg/injection, schedule: Q01DX009 (ip), vehicle: saline with Tween-80
[17] = dose: 25.0 mg/kg/injection, schedule: Q01DX005 (ip), vehicle: saline with Tween-80

O=C(O)c1ccccc1C(=O)Nc1ccccc1C(F)(F)F
T/C [1]: 94 % of control | T/C [2]: 89 % of control | T/C [3]: 121 % of control

N#CCCN(C(=S)Nc1cccc(C(F)(F)F)c1)C1CCCCC1
T/C [1]: 114 % of control and 123 % of control | T/C [2]: 110 % of control and 111 % of control | T/C [3]: 106 % of control

CCOC(=O)N1c2ccccc2C=CC1/C(N)=N/O (centres undefined)
T/C [4]: 109 % of control | T/C [5]: 95 % of control | T/C (dose: 50.0 mg/kg/injection, schedule: Q04DX003 (ip), vehicle: Klucel (hydroxypropylcellulose) (HPC)): 95 % of control | T/C [6]: 104 % of control | T/C [7]: 95 % of control

O=C1c2ccccc2C(=O)C(Cl)C1Cl (centres undefined)
T/C (dose: 1.56 mg/kg/injection, schedule: Q01DX009 (ip), vehicle: saline with Tween-80): 117 % of control | T/C (dose: 3.13 mg/kg/injection, schedule: Q01DX009 (ip), vehicle: saline with Tween-80): 103 % of control | T/C (dose: 6.25 mg/kg/injection, schedule: Q01DX009 (ip), vehicle: saline with Tween-80): 101 % of control

CC(Cl)CN(Cc1cc(O)c(CN(CC(C)Cl)CC(C)Cl)cc1O)CC(C)Cl (centres undefined)
T/C [7]: 118 % of control | T/C (dose: 264.0 mg/kg/injection, schedule: Q04DX003 (ip), vehicle: Klucel (hydroxypropylcellulose) (HPC)): 91 % of control | T/C (dose: 264.0 mg/kg/injection, schedule: Q04DX003 (ip), vehicle: saline): 113 % of control | T/C [8]: 154 % of control | T/C [9]: 109 % of control

Cc1ccccc1C[P+](c1ccccc1)(c1ccccc1)c1ccccc1
T/C (dose: 0.39 mg/kg/injection, schedule: Q01DX009 (ip), vehicle: Klucel (hydroxypropylcellulose) (HPC)): 100 % of control | T/C (dose: 0.39 mg/kg/injection, schedule: Q04DX003 (ip), vehicle: Klucel (hydroxypropylcellulose) (HPC)): 100 % of control | T/C (dose: 0.78 mg/kg/injection, schedule: Q01DX009 (ip), vehicle: Klucel (hydroxypropylcellulose) (HPC)): 108 % of control | T/C (dose: 0.78 mg/kg/injection, schedule: Q04DX003 (ip), vehicle: Klucel (hydroxypropylcellulose) (HPC)): 122 % of control | T/C (dose: 1.56 mg/kg/injection, schedule: Q01DX009 (ip), vehicle: Klucel (hydroxypropylcellulose) (HPC)): 112 % of control | T/C (dose: 1.56 mg/kg/injection, schedule: Q04DX003 (ip), vehicle: Klucel (hydroxypropylcellulose) (HPC)): 113 % of control | T/C (dose: 3.12 mg/kg/injection, schedule: Q01DX009 (ip), vehicle: saline): 150 % of control | T/C (dose: 3.5 mg/kg/injection, schedule: Q04DX003 (ip), vehicle: Klucel (hydroxypropylcellulose) (HPC)): 104 % of control | T/C (dose: 13.2 mg/kg/injection, schedule: Q04DX003 (ip), vehicle: saline with Tween-80): 113 % of control | T/C (dose: 30.0 mg/kg/injection, schedule: Q04DX003 (ip), vehicle: saline with Tween-80): 104 % of control

Nc1n[nH]c(N)n1
T/C [10]: 113 % of control | T/C [11]: 113 % of control

COc1ccccc1OC(=O)Nc1ccccc1F
T/C [12]: 90 % of control | T/C [13]: 90 % of control | T/C [14]: 100 % of control

O=c1nc(Oc2ccccc2)nc2ccccn12
T/C [1]: 105 % of control | T/C [2]: 97 % of control | T/C [3]: 102 % of control

O=C1c2ccccc2C(=O)c2c(Sc3ccccc3)cccc21
T/C [3]: 95 % of control

COc1cc(N2CCOCC2)ccc1[N+](=O)[O-]
T/C [10]: 91 % of control | T/C (dose: 100.0 mg/kg/injection, schedule: Q04DX003 (ip), vehicle: saline): 109 % of control | T/C [11]: 100 % of control | T/C (dose: 200.0 mg/kg/injection, schedule: Q04DX003 (ip), vehicle: saline): 104 % of control | T/C [9]: 95 % of control

Nc1nc(=S)[nH]c(C(=O)O)c1Cc1ccccc1
T/C [4]: 109 % of control | T/C [5]: 86 % of control and 115 % of control | T/C [6]: 115 % of control | T/C [15]: 120 % of control

CCCCOCN(COCCCC)c1ccc([N+](=O)[O-])cc1
T/C [1]: 106 % of control | T/C [2]: 104 % of control | T/C [3]: 100 % of control

O=C1c2ccccc2C2CCCC12 (centres undefined)
T/C [1]: 105 % of control | T/C [2]: 120 % of control | T/C [3]: 112 % of control

CC(C)CCC(=O)C(C)C
T/C [12]: 91 % of control | T/C [13]: 100 % of control | T/C [14]: 95 % of control

CCOC(=O)C(C)Oc1ccc(Cl)cc1 (centres undefined)
T/C (dose: 25.0 mg/kg/injection, schedule: Q04DX003 (ip), vehicle: water): 106 % of control | T/C (dose: 50.0 mg/kg/injection, schedule: Q04DX003 (ip), vehicle: water): 101 % of control | T/C (dose: 100.0 mg/kg/injection, schedule: Q04DX003 (ip), vehicle: water): 113 % of control | T/C (dose: 200.0 mg/kg/injection, schedule: Q04DX003 (ip), vehicle: water): 112 % of control | T/C (dose: 400.0 mg/kg/injection, schedule: Q04DX003 (ip), vehicle: water): 106 % of control

Cn1c(=O)c2ncnnc2n(C)c1=O
T/C (dose: 1.5 mg/kg/injection, schedule: Q01DX009 (ip), vehicle: Klucel (hydroxypropylcellulose) (HPC)): 103 % of control | T/C (dose: 3.0 mg/kg/injection, schedule: Q01DX009 (ip), vehicle: Klucel (hydroxypropylcellulose) (HPC)): 107 % of control | T/C (dose: 6.0 mg/kg/injection, schedule: Q01DX009 (ip), vehicle: Klucel (hydroxypropylcellulose) (HPC)): 112 % of control | T/C (dose: 6.25 mg/kg/injection, schedule: Q01DX009 (ip), vehicle: Klucel (hydroxypropylcellulose) (HPC)): 250 % of control | T/C (dose: 12.0 mg/kg/injection, schedule: Q01DX009 (ip), vehicle: Klucel (hydroxypropylcellulose) (HPC)): 106 % of control | T/C (dose: 12.5 mg/kg/injection, schedule: Q01DX009 (ip), vehicle: Klucel (hydroxypropylcellulose) (HPC)): 108 % of control

Cc1ccc2nc(-c3ccccc3N)[nH]c2c1
T/C [12]: 100 % of control | T/C [13]: 104 % of control | T/C [14]: 90 % of control

C[C@H]1CC2=CC(=O)CC[C@]2(C)[C@H]2CC[C@@]3(C)[C@@H](CC[C@]3(C)O)[C@H]12
T/C [6]: 100 % of control | T/C [7]: 100 % of control | T/C [15]: 105 % of control | T/C (dose: 200.0 mg/kg/injection, schedule: Q04DX003 (ip), vehicle: Klucel (hydroxypropylcellulose) (HPC)): 95 % of control | T/C [8]: 100 % of control

COC(OC)c1[nH]c(=S)[nH]c(=O)c1Cc1c(Cl)cccc1Cl
T/C [12]: 104 % of control | T/C [13]: 104 % of control | T/C [14]: 100 % of control

COc1cccc2c1C(=O)c1c(O)c(COC3CC(N)C(O)C(C)O3)cc(O)c1C2=O (centres undefined)
T/C (dose: 12.5 mg/kg/injection, schedule: Q01DX009 (ip), vehicle: water): 100 % of control | T/C (dose: 25.0 mg/kg/injection, schedule: Q01DX009 (ip), vehicle: water): 100 % of control

Cc1n(C(C)C)c2c([n+]1C)C(=O)c1ccccc1C2=O
T/C (dose: 1.25 mg/kg/injection, schedule: Q01DX009 (ip), vehicle: alcohol): 118 % of control | T/C (dose: 2.5 mg/kg/injection, schedule: Q01DX009 (ip), vehicle: alcohol): 122 % of control

COc1ccc(O)c(/C=C/c2cc[n+](C)cc2)c1
T/C (dose: 100.0 mg/kg/injection, schedule: Q04DX002 (ip), vehicle: saline with Tween-80): 91 % of control | T/C (dose: 200.0 mg/kg/injection, schedule: Q04DX002 (ip), vehicle: saline with Tween-80): 97 % of control

COC(=O)CCCCC(=O)OC
T/C [2]: 100 % of control | T/C [3]: 100 % of control | T/C [16]: 109 % of control

Nc1ncc(Cl)c2ccccc12
T/C [17]: 89 % of control

O=C1OC(N2Cc3ccccc3C2=O)c2ccccc21 (centres undefined)
T/C [1]: 100 % of control | T/C [2]: 100 % of control | T/C [3]: 94 % of control

CN(Cc1ccco1)NC(=O)C(=O)NCc1ccco1
T/C (dose: 12.5 mg/kg/injection, schedule: Q01DX005 (ip), vehicle: saline with Tween-80): 95 % of control | T/C [17]: 95 % of control | T/C (dose: 50.0 mg/kg/injection, schedule: Q01DX005 (ip), vehicle: saline with Tween-80): 88 % of control

CS(=O)c1ccccc1C(=O)O (centres undefined)
T/C [12]: 106 % of control | T/C [13]: 110 % of control | T/C [14]: 109 % of control

O=c1cc(O)ccn1CCc1cccs1
T/C (dose: 12.5 mg/kg/injection, schedule: Q01DX009 (ip), vehicle: saline with Tween-80): 109 % of control | T/C (dose: 25.0 mg/kg/injection, schedule: Q01DX009 (ip), vehicle: saline with Tween-80): 109 % of control | T/C [1]: 121 % of control | T/C [2]: 105 % of control | T/C [12]: 114 % of control | T/C [3]: 112 % of control | T/C [13]: 110 % of control | T/C [16]: 110 % of control | T/C [14]: 119 % of control

O=C(O)CNC(=O)c1ccc([N+](=O)[O-])cc1
T/C [2]: 90 % of control | T/C [3]: 90 % of control | T/C [16]: 86 % of control
